Experimental data from patent US10143667B2, “Ceramide-like function imparting agent” (KAO CORPORATION, priority 2013, dated 2018).

Tests used:
[1] = Evaluation of lamellar-formation ability (X-ray diffraction); assay type: physicochemical; set-up: key to Evaluation of X-ray diffraction measurement: wide-angle X-ray measurement: A: diffraction peaks originating from crystals of stearic acid and cholesterol disappeared and only the peaks originating from a lamellar structure were observed near 2θ=22°; B: diffraction peaks originating from crystals of stearic acid and cholesterol remained but peaks originating approximately from a lamellar structure were observed; C: peaks originating from a lamellar structure were observed only partly; D: no peaks originating from a lamellar structure were observed; key to Evaluation of X-ray diffraction measurement: small-angle X-ray measurement: E: diffraction peaks originating from a periodic structure of lamellar structure were observed; F: no diffraction peaks were observed; settings: equimolar mixture of stearic acid, cholesterol and sample, 30 wt % ion-exchange water
Protocol: Evaluation of lamellar-formation ability was conducted according to the method by Mizushima et al. (Lipids, 30(4), 327-332 (1995)).
Each of stearic acid and cholesterol, used as representatives of fatty acids that are horny layer intercellular lipids, as well as a sample to be evaluated was weighed to give an equimolar mixture, and an ion-exchange water was added thereto in an amount of 30 wt % of the weight of the lipids. The mixture was heat-melted and then cooled to give an evaluation sample.
Wide-angle X-ray diffraction apparatus ((PANalytical) X' Pert MRD High Resolution X-ray Diffractometer)
Small-angle X-ray scattering apparatus ((NANO Viewer manufactured by RIGAKU Corporation), Small-angle X-ray scattering)
In the case where the wide-angle X-ray diffraction apparatus was used, sampling for measurement was conducted by finely grinding a sample in an agate mortar and packing the sample in a measurement cell to give a flat surface. In the case of small-angle X-ray scattering apparatus, the sample was packed in a cell made of stainless steel having grid openings of approximately 4 mm in width and 2 mm in depth.
Conditions for wide-angle X-ray diffraction measurement: measurement cell: a cell for exclusive use made of stainless steel, applied voltage: 45 kV, applied current: 40 mA.
measured range: 2θ=3° to 45°, measurement speed: 2θ=1°/min.
Conditions for small-angle X-ray measurement: measurement cell: a sample that was packed in a stainless steel holder having grid openings was measured.
applied voltage: […], applied current: 30 mA, X-ray irradiation period: 30 minutes, measured at a camera length of from 450 to 650 mm using a detector with an imaging plate.
In a wide-angle X-ray diffraction measurement, a symbol A was assigned to a sample wherein diffraction peaks originating from crystals of stearic acid and cholesterol disappeared and only the peaks originating from a lamellar structure were observed near 2θ=22°, a symbol B was assigned to a sample wherein diffraction peaks originating from crystals of stearic acid and cholesterol remained but peaks originating approximately from a lamellar structure were observed, a symbol C was assigned to a sample wherein peaks originating from a lamellar structure were observed only partly, and a symbol D was assigned to a sample wherein no peaks originating from a lamellar structure were observed. In addition, in a small-angle X-ray measurement, a symbol E was assigned to a sample wherein diffraction peaks originating from a periodic structure of lamellar structure were observed, and a symbol F was assigned to a sample wherein no diffraction peaks were observed.

[2] = Measurement on bonded water content (differential scan calorimetric analysis); assay type: physicochemical; settings: equimolar mixture of stearic acid, cholesterol and sample plus ion-exchange water; DSC
Protocol: Measurement on bonded water content was conducted according to the method by Akasaki et al. (Fragrance Journal, extra edition, No. 13, pp. 66-67, 1994).
1) Differential scan calorimetric analyzer: (DSC6100 (SII Seiko Instruments Inc.)).
A sample prepared by adding ion-exchange water to an equimolar mixture of stearic acid and cholesterol, both used as representatives of fatty acids that are a horny layer intercellular lipid, and a sample to be evaluated, was encapsulated in a cell, and the water content thereof was measured. The temperature of the sample was raised from −40° C. at a rate of 1° C./minute to obtain an enthalpy change accompanied by the temperature raise. A bonded water content was determined from the relation between a water content of a lipid mixture (an amount of moisture absorbed) and a change of peak of enthalpy (melting heat), and an enthalpy change was obtained from the point 0.

[3] = Evaluation as to occlusion (TEWL-inhibition), lipid-impregnated filter paper; settings: filter paper immersed in 10% lipid mixture solution; average of three measurements; versus solvent-only filter
Protocol: Evaluation as to occlusion was conducted according to the method by Akasaki et al. (Fragrance Journal, extra edition, No. 13, p. 65, 1994).
Each of stearic acid and cholesterol, used as representatives of fatty acids that are horny layer intercellular lipids, and a sample to be evaluated was weighed into a screw tube, and a mixed liquid of chloroform and methanol (9:1 by volume) was used to give a 10% solution of the lipid mixture (w/v). A filter paper ([…] Co. Ltd., No. 5C, ϕ=21 mm) was immersed in the 10% solution, and then taken out, dried at room temperature, heated at 90° C. for one hour, hydrated by a water sprayer, heat-treated at 60° C. for 12 hours, and then cooled. The filter thus prepared was set in a vial charged with ion-exchange water (20 ml), and the weight of the filter was measured over time to calculate an amount of TEWL. As a control, was measured an amount of TEWL of a filter which had been immersed only in a mixed liquid of chloroform and methanol (9:1 by volume). A control rate of TEWL (%) was calculated according to the following equation: Control rate of TEWL (%)=(1−amount of TEWL of evaluated sample/amount of TEWL of control)×100. 2) Results

Compound | Evaluation of X-ray diffraction measurement: small-angle X-ray measurement [1] | Evaluation of X-ray diffraction measurement: wide-angle X-ray measurement [1] | Bonded water content [2] [% by mass] | TEWL inhibition rate [3] [%]
2-(hexadecyl/octadecyl)-N,N,-bis(2-hydroxyethyl)succinamide [Compound 2] | E | B |  | 
CCCCCCCCCCCCCCCC(=O)NCCO [Comparative Compound 1, N-(2-hydroxyethyl)palmitamide, reference compound] | F | D |  | 
CCCCCCCCCCCCC/C=C/CC(CC(=O)NCCCCCCCCCCCCCCCC)C(=O)NCCCCCCCCCCCCCCCC (centres unmarked) [Comparative Compound 3, (E)-2-(hexadeca-2-en-1-yl)-N,N,-dihexadecylsuccinamide, reference compound] | F | D |  | 
CCCCCCCCCCCCCCCCOCC(O)CN(CCO)C(=O)CCCCCCCCCCCCCCC (centres unmarked) [Sphingolipid E, reference compound] | E | A | 7.1 | 32.8
(E)-2-(eicosa/docosa/tetracosa)-2-en-1-yl)-N,N,-bis(2-hydroxyethyl)succinamide [Compound 5] | E | A |  | 
(E)-2-(hexadeca/octadeca)-2-en-1-yl)-N,N,-bis(1-hydroxypropan-2-yl)succinamide [Compound 4] | E | C |  | 
(E)-2-(hexadeca/octadeca)-2-en-1-yl)-N,N,-bis(2-(2-hydroxy-ethoxy)ethyl)succinamide [Comparative Compound 2, reference compound] | F | D |  | 24.2
(E)-2-(hexadeca/octadeca)-2-en-1-yl)-N,N,-bis(2-hydroxyethyl)succinamide [Compound 1] | E | B |  | 
(E)-2-(hexadeca/octadeca)-2-en-1-yl)-N-hexadecyl-N-(2-hydroxyethyl)succinamide [Comparative compound 4] |  |  |  | 27.4
(E)-N,N,-bis(1,3-dihydroxy-2-(hydroxymethyl)propan-2-yl)-2-((hexadeca/octadeca)-2-en-1-yl)-succinamide [Compound 7] | E | A |  | 
(E)-N,N,-bis(1,3-dihydroxy-2-methylpropan-2-yl)-2-((hexadeca/octadeca)-2-en-1-yl)-succinamide [Compound 6] | E | B |  | 
(E)-N,N,-bis(3-hydroxypropyl)-2-((hexadeca/octadeca)-2-en-1-yl)-succinamide [Compound 3] | E | C |  | 
